Measurements taken from article PMC5698418 (Nature Communications, 2017).
Counter-ions that a name gives are not always drawn. Like-named read-outs stand apart in the source and are kept apart here.

System: BDNF-induced nuclear Arc expression in primary cortical neurons
Test: Chemogenomic screen: high-content image-based assay of BDNF-induced nuclear Arc expression (96-well)
Type: cell-based, mouse
Method: To increase the throughput of our pharmacological screening for modulators of Arc, the above mentioned assay was adapted to cultures of mouse primary cortical neurons in 96-well plates.
All 319 compounds were initially tested at a final concentration of 16.7 µM with three biological replicates.
Screening of compounds in the chemogenomic library was carried out using DIV13 primary forebrain cortical neurons cultured on poly-L-lysine/laminin-coated 96-well plates (Ibidi USA, Madison, WI). Cells were seeded at a density of 30,000 cells per well and treated with the compound library and BDNF according to the experimental design presented in Fig. 3a. After experimental treatment, cells were processed for Arc and acetyl-H3K9 immunocytochemistry according to the protocol described above. Both antigens (Arc and acetyl-H3K9) were imaged using an IN Cell Analyzer 6000 imaging system and a ×40 objective. […] High-throughput quantification of nuclear Arc immunofluorescence signal was performed in a similar fashion than the low-throughput procedure described above but with the exception that acetyl-H3K9 was used as a nuclear mask to guide the automated quantification of nuclear Arc immunofluorescence signal.

[1] = chemogenomic (SMART) screen, BDNF-induced nuclear Arc expression, primary cortical neurons, BDNF control 19.5
[2] = nuclear Arc-positive cells relative to DMSO + BDNF control, negative values = decrease
[3] = BDNF-induced nuclear Arc expression, primary cortical neurons, chemogenomic screen

SMILES | Percentage of cell with nuclear Arc immunostaining above 2σ threshold [1] [%] | Fold-change — Normalized to DMSO control (BDNF) [2] [fold] | also measured
Cc1cc(-c2ccccc2)nnc1NCCN1CCOCC1 [Minaprine] | 21.8 | 1.1 | 
CN1C(=O)CC(c2ccccc2)C1=O (centres unmarked) [Phensuximide] | 24.8 | 1.3 | 
COc1ccc(C(=O)NCc2ccc(OCCN(C)C)cc2)cc1OC.Cl [Itopride hydrochloride] |  | 1.2 | Percentage of cell with nuclear Arc immunostaining above 2σ threshold: 23.8%
COc1ccc2cc3[n+](cc2c1OC)CCc1cc2c(cc1-3)OCO2 [Berberine] |  |  | Percentage of cell with nuclear Arc immunostaining above 2σ threshold [3]: 2.2%
CC(C)C[C@H](NC(=O)[C@H](CCCCN)NC(=O)[C@H](CCCN=C(N)N)NC(=O)[C@H](C)NC(=O)[C@H](CO)NC(=O)[C@H](CCCCN)NC(=O)[C@H](CCCN=C(N)N)NC(=O)[C@H](C)NC(=O)CNC(=O)[C@@H](NC(=O)[C@H](Cc1ccccc1)NC(=O)CNC(=O)CNC(=O)[C@@H](N)Cc1ccccc1)[C@@H](C)O)C(=O)N[C@@H](C)C(=O)N[C@@H](CC(N)=O)C(=O)N[C@@H](CCC(N)=O)C(=O)O [Nociceptin] |  | 1.1 | Percentage of cell with nuclear Arc immunostaining above 2σ threshold: 21.6%
CN1CC(=O)NC1=O [1-Methylhydantoin] | 31.8 | 1.6 | 
O=C(O)CCCNC(=O)c1cccnc1 [Pikamilone] | 38.6 | 2.0 | 
Cl.c1ccc2c(c1)OCC(C1=NCCN1)O2 (centres unmarked) [Idazoxan hydrochloride, RX 781094] | 24.1 | 1.2 | 
CC(C)(N)C(=O)N[C@H](COCc1ccccc1)C(=O)N1CCC2(CC1)CN(S(C)(=O)=O)c1ccccc12 [Ibutamoren] |  |  | Percentage of cell with nuclear Arc immunostaining above 2σ threshold [3]: 7.1%
O=C(CCCN1CCC(n2c(O)nc3ccccc32)CC1)c1ccc(F)cc1 [Benperidol] | 18.9 |  | 
CNC1(C)C2CCC(C2)C1(C)C (centres unmarked) [Mecamylamine] |  |  | Percentage of cell with nuclear Arc immunostaining above 2σ threshold [3]: 11.9%
CC[C@]12CCCN3CCc4c(n(c5ccccc45)[C@@](O)(C(=O)OC)C1)[C@@H]32 [Vincamine] | 19.0 |  | 
NC(=O)CN1CC(O)CC1=O (centres unmarked) [Oxiracetam] | 41.5 | 2.1 | 
O=C1c2ccccc2S(=O)(=O)N1CCCCN1CCN(c2ncccn2)CC1 [Ipsapirone] | 27.4 | 1.4 | 
C[S+]([O-])CCCCN=C=S (centres unmarked) [Sulforaphane] | 18.2 |  | 
CN1[C@@H]2CC[C@H]1C[C@@H](OC(=O)c1c[nH]c3ccccc13)C2 [Tropisetron] | 28.5 | 1.5 | 
Cc1c(-c2ccccc2)oc2c(C(=O)OCCN3CCCCC3)cccc2c1=O [Flavoxate] |  |  | Percentage of cell with nuclear Arc immunostaining above 2σ threshold [3]: 3.1%
C[C@]12N[C@H](Cc3ccccc31)c1ccccc12 [Dizocilpine] |  | 1.1 | Percentage of cell with nuclear Arc immunostaining above 2σ threshold: 21.2%
CN(C)CCOC(=O)COc1ccc(Cl)cc1.Cl [Meclofenoxate hydrochloride] |  | 1.4 | Percentage of cell with nuclear Arc immunostaining above 2σ threshold: 28.2%

SMILES | Percentage of cell with nuclear Arc immunostaining above 2σ threshold [1] [%] | Fold-change — Normalized to DMSO control (BDNF) [2] [fold] | also measured
O=C([O-])CCCNC(=O)c1cccnc1.[Na+] [Picamilon sodium salt] | 29.2 | 1.5 | 
COc1ccc(CNC(=O)Nc2ncc([N+](=O)[O-])s2)cc1 [AR-A014418] |  |  | Percentage of cell with nuclear Arc immunostaining above 2σ threshold [3]: 4.9%; Fold-change — Normalized to DMSO control (BDNF) (nuclear Arc-positive cells relative to DMSO control (BDNF), negative = decrease): -4.0 fold
CN(C)CCC=C1c2ccccc2COc2ccccc21 [Doxepin] |  |  | Percentage of cell with nuclear Arc immunostaining above 2σ threshold [3]: 10.2%
NC(=O)N1c2ccccc2CC(=O)c2ccccc21 [Oxcarbazepine] | 23.6 | 1.2 | 
CCN[C@H]1C[C@H](C)S(=O)(=O)c2sc(S(N)(=O)=O)cc21 [Dorzolamide] |  |  | Percentage of cell with nuclear Arc immunostaining above 2σ threshold [3]: 7.1%
NC(=O)CN1CCCC1=O [Piracetam] |  |  | Percentage of cell with nuclear Arc immunostaining above 2σ threshold [3]: 10.5%
COc1cc(N)c(Cl)cc1C(=O)NC1CCN(Cc2ccccc2)CC1 [Clebopride] | 25.8 | 1.3 | 
CCOc1ccc(Cc2nccc3cc(OCC)c(OCC)cc23)cc1OCC [Ethaverine] |  |  | Percentage of cell with nuclear Arc immunostaining above 2σ threshold [3]: 1.3%
Cc1[nH]c2ccc(Cl)cc2c1C1=CCNCC1 [EMD-386,088] |  | 1.2 | Percentage of cell with nuclear Arc immunostaining above 2σ threshold: 22.7%
CCN(CC)CCNC(=O)c1cc(Br)c(N)cc1OC [Bromopride] | 27.7 | 1.4 | 
CCN(CC)CCNC(=O)c1cc(S(C)(=O)=O)ccc1OC [Tiapride hydrochloride] | 20.9 | 1.1 | 
Nc1cccc(-c2cc3c(Oc4cccc(O)c4)ncnc3[nH]2)c1 [TWS119] | 33.9 | 1.7 | 
CNC1CC(c2ccc(Cl)c(Cl)c2)c2ccccc21 (centres unmarked) [Indatraline] |  |  | Percentage of cell with nuclear Arc immunostaining above 2σ threshold: 0.0%
CN1CCN(CCCN2c3ccccc3Sc3ccc(C(F)(F)F)cc32)CC1 [Trifluoperazine] |  |  | Percentage of cell with nuclear Arc immunostaining above 2σ threshold [3]: 0.0%
CNCCC(Oc1ccccc1OC)c1ccccc1 (centres unmarked) [Nisoxetine hydrochloride] |  |  | Percentage of cell with nuclear Arc immunostaining above 2σ threshold: 19.1%
COc1ccc2cccc(CCNC(C)=O)c2c1 [Agomelatine] | 17.6 |  | 
COc1ccc(C(CN(C)C)C2(O)CCCCC2)cc1 (centres unmarked) [Venlafaxine] |  |  | Percentage of cell with nuclear Arc immunostaining above 2σ threshold: 12.1%
Cl.O=C(O)C1=CCCN(CCON=C(c2ccccc2)c2ccccc2)C1 [NNC 711 hydrochloride] |  | 1.1 | Percentage of cell with nuclear Arc immunostaining above 2σ threshold: 21.4%
NS(=O)(=O)Cc1noc2ccccc12 [Zonisamide] |  |  | Percentage of cell with nuclear Arc immunostaining above 2σ threshold [3]: 9.8%
